pEC50: −log10 of the molar value.
Molecular target: T1, human GPR119 (Homo sapiens, UniProt Q8TDV5)
T1 construct: expressed in transfected cells; host or cells: HEK293
T1 sequence (Q8TDV5 1-335): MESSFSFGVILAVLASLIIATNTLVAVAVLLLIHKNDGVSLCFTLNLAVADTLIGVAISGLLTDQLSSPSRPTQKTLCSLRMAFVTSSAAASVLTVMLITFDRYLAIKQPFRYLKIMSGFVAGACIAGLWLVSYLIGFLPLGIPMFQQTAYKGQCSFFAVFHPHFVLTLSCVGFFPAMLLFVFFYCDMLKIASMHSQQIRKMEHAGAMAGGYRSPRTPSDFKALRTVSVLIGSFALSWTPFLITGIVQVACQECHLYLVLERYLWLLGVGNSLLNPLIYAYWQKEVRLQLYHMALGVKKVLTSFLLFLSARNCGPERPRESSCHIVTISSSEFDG
Test: cAMP assay (LANCE cAMP kit), activation of GPR119
Format: cell-based
Conditions: HEK293 cells expressing human GPR119; increase in cAMP levels
Description: The ability of illustrative compounds of the invention to activate GPR119 and stimulate increases in cAMP levels was determined using the LANCE™ cAMP kit (Perkin Elmer). HEK293 cells expressing human GPR119 were maintained in culture flasks at 37° C./5% CO2 in DMEM containing 10% fetal bovine serum, 100 U/ml Pen/Strep, and 0.5 mg/ml geneticin. The media was changed to Optimem and cells were incubated overnight at 37° C./5% CO2. The Optimem was then aspirated and the cells were removed from the flasks using room temperature Hank's balanced saline solution (HBSS). The cells were pelleted using centrifugation (1300 rpm, 7 minutes, room temperature), then resuspended in stimulation buffer (HBSS, 0.1% BSA, 5 mM HEPES, 15 μM RO-20) at 2.5×10^6 cells/mL. Alexa Fluor 647-anti cAMP antibody (1:100) was then added to the cell suspension and incubated for 30 minutes. A representative Fused Bicyclic Pyrimidine Derivative (6 μl at 2× concentration) in stimulation buffer containing 2% DMSO were then added to white 384 well Matrix plates. Cell suspension mix (6 μl) was added to each well and incubated with the Fused Bicyclic Pyrimidine Derivative for 30 minutes. A cAMP standard curve was also created in each assay according to the kit protocol. Standard concentrations of cAMP in stimulation buffer (6 μl) were added to white 384 well plates. Subsequently, 6 μl of 1:100 anti-cAMP antibody was added to each well. Following the 30 minute incubation period, 12 μl of detection mix (included in kit) was added to all wells and incubated for 2-3 hours at room temperature. Fluorescence was detected on the plates using an Envision instrument. The level of cAMP in each well is determined by extrapolation from the cAMP standard curve.

Compound | pEC50
Fc1cnc(N2CC3COCC(C2)C3Oc2ncnc3c2ccn3-c2ccc(F)cc2F)nc1 (stereo not drawn) [Compound 12] | 7.00 to 7.30
CC1(OC(=O)N2CC3COCC(C2)C3Oc2ncnc3c2ncn3-c2ccc(C#N)cc2F)CC1 (stereo not drawn) [Compound 35] | 7.00 to 7.30
Cn1cc(-c2ccc(-n3ncc4c(OC5C6COCC5CN(C(=O)OC5(C)CC5)C6)ncnc43)c(F)c2)cn1 (stereo not drawn) [Compound 48] | 6.30 to 7.00
CC1(OC(=O)N2CC3COCC(C2)C3Oc2ncnc3c2CCN3c2ccc(F)cc2F)CC1 (stereo not drawn) [Compound 11] | > 7.30
CC1(OC(=O)N2CC3COCC(C2)C3Oc2ncnc3c2cnn3-c2ccc(F)cc2F)CC1 (stereo not drawn) [Compound 46] | 6.30 to 7.00
Cc1nc2c(OC3C4COCC3CN(C(=O)OC3(C)CC3)C4)ncnc2n1-c1ccc(C#N)cc1F (stereo not drawn) [Compound 42] | 6.00 to 6.30
CC1(OC(=O)N2CC3COCC(C2)C3Oc2ncnc3c2cnn3-c2ccc(-c3cscn3)cc2F)CC1 (stereo not drawn) [Compound 50] | 6.30 to 7.00
CC1(OC(=O)N2CC3COCC(C2)C3Oc2ncnc3c2cnn3-c2ccc(C#N)cc2F)CC1 (stereo not drawn) [Compound 37] | > 7.30
Fc1ccc(N2CCc3c(OC4C5COCC4CN(c4ncc(Cl)cn4)C5)ncnc32)c(F)c1 (stereo not drawn) [Compound 13] | 6.30 to 7.00
CC(C)c1noc(N2CC3COCC(C2)C3Oc2ncnc3c2ccn3-c2ccc(F)cc2F)n1 (stereo not drawn) [Compound 29] | 6.30 to 7.00
CC1(OC(=O)N2CC3COCC(C2)C3Oc2ncnc3c2OCCN3c2ccc(C#N)cc2F)CC1 (stereo not drawn) [Compound 54] | 6.30 to 7.00
CC1OC(C)C2CN(C(=O)OC3(C)CC3)CC1C2Oc1ncnc2c1cnn2-c1ccc(C#N)cc1F (stereo not drawn) [Compound 39] | 6.30 to 7.00
CC(C)OC(=O)N1CC2COCC(C1)C2Oc1ncnc2c1OCCN2c1ccc(C#N)cc1F (stereo not drawn) [Compound 55] | 6.30 to 7.00
CC1(OC(=O)N2CC3COCC(C2)C3Oc2ncnc3c2[nH]c(=O)n3-c2ccc(C#N)cc2F)CC1 (stereo not drawn) [Compound 41] | 6.00 to 6.30
CC1(OC(=O)N2CC3COCC(C2)C3Oc2ncnc3c2ncn3-c2ccc(Br)cc2F)CC1 (stereo not drawn) [Compound 47] | 6.30 to 7.00
CC1(OC(=O)N2CC3COCC(C2)C3Oc2ncnc3c2cnn3-c2ccc(-c3ncco3)cc2F)CC1 (stereo not drawn) [Compound 49] | 6.30 to 7.00
CC1(OC(=O)N2CC3COCC(C2)C3Oc2ncnc3c2nnn3-c2ccc(C#N)cc2Cl)CC1 (stereo not drawn) [Compound 52] | 7.00 to 7.30
CC(C)OC(=O)N1CC2COCC(C1)C2Oc1ncnc2c1ncn2-c1ccc(C#N)cc1Cl (stereo not drawn) [Compound 44] | 6.30 to 7.00
CS(=O)(=O)c1ccc(-n2ccc3c(OC4C5COCC4CN(c4ncc(Cl)cn4)C5)ncnc32)c(F)c1 (stereo not drawn) [Compound 27] | > 7.30
CC1(OC(=O)N2CC3COCC(C2)C3Oc2ncnc3c2cnn3-c2ccc(C#N)cc2F)CC1 (stereo not drawn) [Compound 36] | > 7.30
CCCc1cnc(N2CC3COCC(C2)C3Oc2ncnc3c2ccn3-c2ccc(S(C)(=O)=O)cc2F)nc1 (stereo not drawn) [Compound 31] | 7.00 to 7.30
CC1(OC(=O)N2CC3COCC(C2)C3Oc2ncnc3c2ncn3-c2ccc(C#N)cc2Cl)CC1 (stereo not drawn) [Compound 43] | 6.30 to 7.00
CC1OC(C)C2CN(C(=O)OC3(C)CC3)CC1C2Oc1ncnc2c1cnn2-c1ccc(C#N)cc1F (stereo not drawn) [Compound 38] | > 7.30
CS(=O)(=O)c1ccc(-n2cnc3c(OC4C5COCC4CN(c4ncc(Cl)cn4)C5)ncnc32)c(F)c1 (stereo not drawn) [Compound 34] | 6.00 to 6.30
CS(=O)(=O)c1ccc(-n2ccc3c(OC4C5COCC4CN(c4ncc(F)cn4)C5)ncnc32)c(F)c1 (stereo not drawn) [Compound 30] | 7.00 to 7.30
CC1(OC(=O)N2CC3COCC(C2)C3Oc2ncnc3c2cnn3-c2ccc(F)cc2F)CC1 (stereo not drawn) [Compound 45] | 6.30 to 7.00
CC1(OC(=O)N2CC3COCC(C2)C3Oc2ncnc3c2cnn3-c2ccc(C#N)cc2Cl)CC1 (stereo not drawn) [Compound 40] | > 7.30

Other lines, results leading:

pEC50 | Compound
> 7.30 | Cc1c(F)ccc(-n2ccc3c(OC4C5COCC4CN(C(=O)OC4(C)CC4)C5)ncnc32)c1F (stereo not drawn) [Compound 18]
> 7.30 | CC(C)(C)OC(=O)N1CC2COCC(C1)C2Oc1ncnc2c1ccn2-c1ccc(C#N)cc1F (stereo not drawn) [Compound 1]
> 7.30 | CC(C)(C)OC(=O)N1CC2COCC(C1)C2Oc1ncnc2c1ccn2-c1c(F)cc(F)cc1F (stereo not drawn) [Compound 32]
6.30 to 7.00 | CC(C)(C)OC(=O)N1CC2COCC(C1)C2Oc1ncnc2c1nnn2-c1ccc(C#N)cc1Cl (stereo not drawn) [Compound 51]
6.30 to 7.00 | CC(C)(C)OC(=O)N1CC2COCC(C1)C2Oc1ncnc2c1OCCN2c1ccc(C#N)cc1F (stereo not drawn) [Compound 53]
> 7.30 | CC(C)(C)OC(=O)N1CC2COCC(C1)C2Oc1ncnc2c1ccn2-c1ccc(F)cc1F (stereo not drawn) [Compound 7]
> 7.30 | CC(C)(C)OC(=O)N1CC2COCC(C1)C2Oc1ncnc2c1ccn2-c1c(F)cccc1F (stereo not drawn) [Compound 14]
7.00 to 7.30 | Cc1cccc(-n2ccc3c(OC4C5COCC4CN(C(=O)OC(C)(C)C)C5)ncnc32)c1C#N (stereo not drawn) [Compound 23]
7.00 to 7.30 | Cc1c(F)ccc(-n2ccc3c(OC4C5COCC4CN(C(=O)OC4(C)CC4)C5)ncnc32)c1C#N (stereo not drawn) [Compound 22]
> 7.30 | CC(C)(C)OC(=O)N1CC2COCC(C1)C2Oc1ncnc2c1ccn2-c1ccc(C#N)cc1F (stereo not drawn) [Compound 2]
6.30 to 7.00 | CC(C)(C)OC(=O)N1CC2COCC(C1)C2Oc1ncnc2c1ccn2-c1ccc(S(C)(=O)=O)cc1F (stereo not drawn) [Compound 25]
> 7.30 | CC(C)(C)OC(=O)N1CC2COCC(C1)C2Oc1ncnc2c1CCN2c1ccc(F)cc1F (stereo not drawn) [Compound 9]
> 7.30 | CC(C)(C)OC(=O)N1CC2COCC(C1)C2Oc1ncnc2c1ccn2-c1c(F)cc(F)cc1F (stereo not drawn) [Compound 33]
> 7.30 | CC1(OC(=O)N2CC3COCC(C2)C3Oc2ncnc3c2ccn3-c2ccc(C#N)cc2F)CC1 (stereo not drawn) [Compound 5]
> 7.30 | CCCOC(=O)N1CC2COCC(C1)C2Oc1ncnc2c1ccn2-c1ccc(C#N)cc1F (stereo not drawn) [Compound 4]
> 7.30 | CC(C)(C)OC(=O)N1CC2COCC(C1)C2Oc1ncnc2c1ccn2-c1ccc(F)cc1F (stereo not drawn) [Compound 6]
> 7.30 | CC(C)OC(=O)N1CC2COCC(C1)C2Oc1ncnc2c1ccn2-c1ccc(C#N)cc1F (stereo not drawn) [Compound 3]
7.00 to 7.30 | Cc1c(F)ccc(-n2ccc3c(OC4C5COCC4CN(C(=O)OC(C)(C)C)C5)ncnc32)c1C#N (stereo not drawn) [Compound 21]
6.30 to 7.00 | CC(C)(C)OC(=O)N1CC2COCC(C1)C2Oc1ncnc2c1CCN2c1ccc(F)cc1F (stereo not drawn) [Compound 10]
6.30 to 7.00 | Cc1c(F)ccc(-n2ccc3c(OC4C5COCC4CN(C(=O)OC(C)(C)C)C5)ncnc32)c1C#N (stereo not drawn) [Compound 20]
7.00 to 7.30 | Cc1cccc(-n2ccc3c(OC4C5COCC4CN(C(=O)OC4(C)CC4)C5)ncnc32)c1C#N (stereo not drawn) [Compound 24]
> 7.30 | Cc1c(F)ccc(-n2ccc3c(OC4C5COCC4CN(C(=O)OC(C)(C)C)C5)ncnc32)c1F (stereo not drawn) [Compound 16]
6.30 to 7.00 | CC(C)(C)OC(=O)N1CC2COCC(C1)C2Oc1ncnc2c1ccn2-c1ccc(S(C)(=O)=O)cc1F (stereo not drawn) [Compound 26]
> 7.30 | CC1(OC(=O)N2CC3COCC(C2)C3Oc2ncnc3c2ccn3-c2c(F)cccc2F)CC1 (stereo not drawn) [Compound 19]
6.30 to 7.00 | CC1(OC(=O)N2CC3COCC(C2)C3Oc2ncnc3c2ccn3-c2ccc(S(C)(=O)=O)cc2F)CC1 (stereo not drawn) [Compound 28]
7.00 to 7.30 | Cc1c(F)ccc(-n2ccc3c(OC4C5COCC4CN(C(=O)OC(C)(C)C)C5)ncnc32)c1F (stereo not drawn) [Compound 17]
> 7.30 | CC1(OC(=O)N2CC3COCC(C2)C3Oc2ncnc3c2ccn3-c2ccc(F)cc2F)CC1 (stereo not drawn) [Compound 8]

Source: patent publication US20120232073A1, “FUSED BICYCLIC PYRIMIDINE DERIVATIVES AND METHODS OF USE THEREOF” (priority 2009, published 2012)
